# Target: Serine/threonine-protein kinase B-raf [V600E] (Homo sapiens, UniProt P15056, V600E)
# Assay: BRAF V600E and V600K Enzyme Assay
# Description: A competitive displacement assay was configured for B-Raf that monitors the amount of a fluorescently-tagged tracer bound to B-Raf via TR-FRET from an anti-tag Eu-labeled antibody also bound to B-Raf.
# Chain of Serine/threonine-protein kinase B-raf [V600E] (P15056 2-766 V600E limits assumed): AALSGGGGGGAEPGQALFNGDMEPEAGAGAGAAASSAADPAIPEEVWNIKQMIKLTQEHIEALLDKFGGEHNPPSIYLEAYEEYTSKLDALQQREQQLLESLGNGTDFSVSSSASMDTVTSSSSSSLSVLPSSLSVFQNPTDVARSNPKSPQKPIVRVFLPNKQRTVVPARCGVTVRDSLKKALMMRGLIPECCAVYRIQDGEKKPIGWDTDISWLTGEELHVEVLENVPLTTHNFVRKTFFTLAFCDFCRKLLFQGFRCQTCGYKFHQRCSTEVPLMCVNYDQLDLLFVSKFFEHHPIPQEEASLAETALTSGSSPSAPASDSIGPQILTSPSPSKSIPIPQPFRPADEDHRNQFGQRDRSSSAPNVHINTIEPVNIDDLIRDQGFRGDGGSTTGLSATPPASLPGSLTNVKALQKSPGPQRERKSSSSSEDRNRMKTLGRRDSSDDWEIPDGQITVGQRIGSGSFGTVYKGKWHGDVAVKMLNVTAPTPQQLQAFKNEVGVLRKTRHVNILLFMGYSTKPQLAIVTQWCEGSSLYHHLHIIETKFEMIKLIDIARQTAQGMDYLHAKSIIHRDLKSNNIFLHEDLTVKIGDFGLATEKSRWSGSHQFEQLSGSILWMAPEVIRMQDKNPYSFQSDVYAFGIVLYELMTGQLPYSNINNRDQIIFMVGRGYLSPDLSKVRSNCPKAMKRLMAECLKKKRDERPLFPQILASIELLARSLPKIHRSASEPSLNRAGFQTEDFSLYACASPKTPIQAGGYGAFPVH
row,Structure (SMILES),IC50 [nM]
1,"Cc1c(Nc2c(F)cnc(NS(=O)(=O)CC3CC3)c2Cl)ccc2ncn(C)c(=O)c12 [US11414404, Ex. # 47]",41.7
2,"Cc1c(Nc2c(F)ccc(NS(=O)(=O)CC3CC3)c2Cl)ccc2ncn(C)c(=O)c12 [US11414404, Ex. # 50]",66.1
3,"Cc1c(Nc2c(F)ccc(NS(=O)(=O)CC(C)C)c2Cl)ccc2ncn(C)c(=O)c12 [US11414404, Ex. # 51]",63.4

# — BindingDB's records for patent US11414404 (Array BioPharma Inc., 2022)
